Active and inactive are the calls of the source. No cut-off for these calls is given here.

Assay [1] concerns Liver. Kind of assay: Antioxidant activity in Rattus norvegicus (rat) liver assessed as superoxide anion scavenging activity at 10^-3 to 10^-4 M. In kind it is functional, tissue-based.
In assay [2] the test system is Liver. Kind of assay: Antioxidant activity in Rattus norvegicus (rat) liver assessed as DPPH free radical scavenging activity at 10^-3 to 10^-4 M. In kind it is functional, tissue-based.
Assay [3] has as its target Aldo-keto reductase family 1 member B1 (Rattus norvegicus) (UniProt P07943). Kind of assay: Inhibition of Rattus norvegicus albino (rat) kidney aldose reductase using D-L-glyceraldehyde as substrate assessed as decrease in NADPH level measured for 5 min by spectrophotometric analysis.

Consider `O=[N+]([O-])c1cc(-c2cc3ccccc3[nH]2)ccc1Cl`, for which the result in assay [1] and in assay [2] was Active. Besides, in assay [3], the inhibition is 5.29%.

For the compound `Fc1ccc(-c2cc3ccccc3[nH]2)cc1`, the result in assay [1] was Active. The outcome in assay [2] was inactive. Also, the inhibition entry in assay [3] is “inactive”.

As for `O=Cc1c(-c2ccccc2)[nH]c2ccccc12`, the outcome in assay [1] and in assay [2] was inactive. Further, the inhibition in assay [3] is 7.64%.

Regarding `Nc1ccc(-c2[nH]c3ccccc3c2C=O)cc1`, the outcome in assay [1] and in assay [2] was inactive. The inhibition result in assay [3] was “inactive”.

`O=Cc1c(-c2ccc(Cl)c([N+](=O)[O-])c2)[nH]c2ccccc12`: the outcome in assay [1] and in assay [2] was inactive. Besides, the inhibition entry in assay [3] is “inactive”.

As for `Nc1ccc(-c2cc3ccccc3[nH]2)cc1`, the outcome in assay [1] and in assay [2] was Active. For the same compound, the inhibition in assay [3] amounted to 11%.

Turning to `Clc1ccc(-c2cc3ccccc3[nH]2)cc1Cl`, the result in assay [1] was Active. Further, the result in assay [2] was inactive. The inhibition entry in assay [3] is “inactive”.

Consider `O=Cc1c(-c2ccc(Cl)cc2)[nH]c2ccccc12`, for which the result in assay [1] and in assay [2] was inactive. For the same compound, in assay [3], the inhibition result is “inactive”.

Take `Clc1ccc(-c2cc3ccccc3[nH]2)cc1`: the outcome in assay [1] was Active. Further, the result in assay [2] was inactive. For the same compound, the inhibition result in assay [3] is “inactive”.

Turning to `c1ccc(-c2cc3ccccc3[nH]2)cc1`, the result in assay [1] and in assay [2] was inactive. The inhibition result in assay [3] was “inactive”.

`O=[N+]([O-])c1cc([N+](=O)[O-])c2[nH]c(-c3ccccc3)cc2c1`: the result in assay [1] and in assay [2] was Active. The inhibition entry in assay [3] was “inactive”.

Take `O=Cc1c(-c2ccc(F)cc2)[nH]c2ccccc12`: the result in assay [1] and in assay [2] was inactive. In assay [3], the inhibition result was “inactive”.

(Values after ChEMBL document CHEMBL3045581, “Preliminary evaluation of rat kidney aldose reductase inhibitory activity of 2-phenylindole derivatives: affiliation to antioxidant activity” (Med Chem Res, 2007).)
